Measurements as given in PMC10817512, “OSMAC-Based Discovery and Biosynthetic Gene Clusters Analysis of Secondary Metabolites from Marine-Derived Streptomyces globisporus SCSIO LCY30” (Marine Drugs, 2023).
≈ marks a conversion by molar mass, not a printed value. Like-named read-outs stand apart in the source and are kept apart here.

How the values were obtained:
[1] = test system: Staphylococcus aureus 3090; test: Antibacterial MIC, CLSI microdilution; assay type: cell-based; details: Staphylococcus aureus 3090; 37 °C, 16–18 h; read-out: MIC
Protocol: (§1) An antibacterial activity test of compounds 1–3 was conducted according to a standard protocol provided by the Clinical and Laboratory Standards Institute (CLSI). Sixteen bacterial strains were used, including Staphylococcus aureus ATCC 29213, Staphylococcus aureus 16339, Staphylococcus aureus 1862, Staphylococcus aureus 3090, Staphylococcus aureus 991, Staphylococcus aureus 669, Staphylococcus aureus 745324, Staphylococcus aureus 16162, Staphylococcus aureus (cfr) GDE4P037P, Enterococcus faecalis ATCC 29212, Enterococcus faecalis 36950, Micrococcus luteus ML01, MRSA, Bacillus subtilis BS01, Enterococcus gallinarum 5F52C, and Enterococcus faecium 36711. Compounds 1–3 were dissolved in DMSO at a concentration of 3.2 mg/mL, and vancomycin and ampicilin were used as antibacterial control agents. […] All the assays were carried out in triplicate.

[2] = test system: Staphylococcus aureus 669; test: Antibacterial MIC, CLSI microdilution; assay type: cell-based; details: Staphylococcus aureus 669; 37 °C, 16–18 h; read-out: MIC
Protocol: as §1

[3] = test system: Bacillus subtilis BS01; test: Antibacterial MIC, CLSI microdilution; assay type: cell-based; details: Bacillus subtilis BS01; 37 °C, 16–18 h; read-out: MIC
Protocol: as §1

[4] = test system: Enterococcus gallinarum 5F52C; test: Antibacterial MIC, CLSI microdilution; assay type: cell-based; details: Enterococcus gallinarum 5F52C; 37 °C, 16–18 h; read-out: MIC
Protocol: as §1

[5] = test system: Enterococcus faecalis 36950; test: Antibacterial MIC, CLSI microdilution; assay type: cell-based; details: Enterococcus faecalis 36950; 37 °C, 16–18 h; read-out: MIC
Protocol: as §1

[6] = test system: Staphylococcus aureus (cfr) GDE4P037P; test: Antibacterial MIC, CLSI microdilution; assay type: cell-based; details: Staphylococcus aureus (cfr) GDE4P037P; 37 °C, 16–18 h; read-out: MIC
Protocol: as §1

[7] = test system: Staphylococcus aureus ATCC 29213; test: Antibacterial MIC, CLSI microdilution; assay type: cell-based; details: ATCC29213; Staphylococcus aureus ATCC 29213; 37 °C, 16–18 h; read-out: MIC
Protocol: as §1

[8] = test system: Micrococcus luteus ML01; test: Antibacterial MIC, CLSI microdilution; assay type: cell-based; details: 37 °C, 16–18 h
Protocol: as §1

[9] = test system: Staphylococcus aureus 16339; test: Antibacterial MIC, CLSI microdilution; assay type: cell-based; details: Staphylococcus aureus 16339; 37 °C, 16–18 h; read-out: MIC
Protocol: as §1

[10] = test system: Staphylococcus aureus 745324; test: Antibacterial MIC, CLSI microdilution; assay type: cell-based; details: Staphylococcus aureus 745324; 37 °C, 16–18 h; read-out: MIC
Protocol: as §1

[11] = test system: Staphylococcus aureus 16162; test: Antibacterial MIC, CLSI microdilution; assay type: cell-based; details: Staphylococcus aureus 16162; 37 °C, 16–18 h; read-out: MIC
Protocol: as §1

[12] = test system: Staphylococcus aureus 1862; test: Antibacterial MIC, CLSI microdilution; assay type: cell-based; details: Staphylococcus aureus 1862; 37 °C, 16–18 h; read-out: MIC
Protocol: as §1

[13] = test system: Enterococcus faecium 36711; test: Antibacterial MIC, CLSI microdilution; assay type: cell-based; details: Enterococcus faecium 36711; 37 °C, 16–18 h; read-out: MIC
Protocol: as §1

[14] = test system: Staphylococcus aureus 991; test: Antibacterial MIC, CLSI microdilution; assay type: cell-based; details: Staphylococcus aureus 991; 37 °C, 16–18 h; read-out: MIC
Protocol: as §1

[15] = test system: Enterococcus faecalis ATCC 29212; test: Antibacterial MIC, CLSI microdilution; assay type: cell-based; details: ATCC29212; Enterococcus faecalis ATCC 29212; 37 °C, 16–18 h; read-out: MIC
Protocol: as §1

[16] = test system: colorectal cancer cell line SW480; test: Cell growth inhibitory (cytotoxic) activity assay; assay type: cell-based, human
From the text: (§2) The cell growth inhibitory activities of compounds 1–3 against fourteen different human cell lines (human liver cell line LX-2; hepatocellular cancer line HEPG2; human intestinal epithelial cell line NCM460; colorectal cancer cell lines HCT116 and SW480; normal human breast cell line MCF-10A; breast cancer cell line MCF7; triple-negative breast cancer cell lines MDA-MB-231, MDA-MB-468, and Bt-549; human umbilical vein endothelial cell line; lung cancer cell line A549; cervical cancer cell line Hela; and cholangiocarcinoma cell line RBE) were tested according to the previously published methods. SPSS software version 22.0 was used to test the IC50 values. Cisplatin and adriamycin were used as positive control agents, and all the experiments were carried out in triplicate.

[17] = test system: triple-negative breast cancer cell line Bt-549; test: Cell growth inhibitory (cytotoxic) activity assay; assay type: cell-based, human; details: Homo sapiens; Bt-549 (TNBC)
From the text: as §2

[18] = test system: cholangiocarcinoma cell line RBE; test: Cell growth inhibitory (cytotoxic) activity assay; assay type: cell-based, human; details: Homo sapiens
From the text: as §2

[19] = test system: triple-negative breast cancer cell line MDA-MB-468; test: Cell growth inhibitory (cytotoxic) activity assay; assay type: cell-based, human; details: Homo sapiens; MDA-MB-468 (TNBC)
From the text: as §2

[20] = test system: cervical cancer cell line Hela; test: Cell growth inhibitory (cytotoxic) activity assay; assay type: cell-based, human; details: Homo sapiens
From the text: as §2

[21] = test system: colorectal cancer cell line HCT116; test: Cell growth inhibitory (cytotoxic) activity assay; assay type: cell-based, human; details: Homo sapiens, HCT-116
From the text: as §2

[22] = test system: triple-negative breast cancer cell line MDA-MB-231; test: Cell growth inhibitory (cytotoxic) activity assay; assay type: cell-based, human; details: Homo sapiens; MDA-MB-231 (TNBC)
From the text: as §2

[23] = test system: lung cancer cell line A549; test: Cell growth inhibitory (cytotoxic) activity assay; assay type: cell-based, human; details: Homo sapiens
From the text: as §2

[24] = test system: hepatocellular cancer line HEPG2; test: Cell growth inhibitory (cytotoxic) activity assay; assay type: cell-based, human; details: Homo sapiens
From the text: as §2

[25] = test system: TNBC cell lines MDA-MB-231, MDA-MB-468, and Bt-549; test: Cytotoxicity, span over TNBC cell lines; assay type: cell-based; details: Homo sapiens; span over MDA-MB-231, MDA-MB-468 and Bt-549; read-out: IC50 values, range against TNBC cell lines
From the text: as §2

[26] = test system: MRSA; test: Antibacterial MIC, CLSI microdilution; assay type: cell-based, Staphylococcus aureus; details: Staphylococcus aureus, 37 °C, 16–18 h, read-out: MIC
Protocol: as §1

[27] = test system: fourteen human cell lines; test: Cytotoxicity, span over the whole cell panel; assay type: cell-based; details: span of the IC50 values over all fourteen cell lines, read-out: IC50 values, range against fourteen human cell lines
From the text: as §2

[28] = test system: normal human breast cell line MCF-10A; test: Cell growth inhibitory (cytotoxic) activity assay; assay type: cell-based; details: MCF-10A (normal human breast cell line)
From the text: as §2

[29] = test system: human intestinal epithelial cell line NCM460; test: Cell growth inhibitory (cytotoxic) activity assay; assay type: cell-based; details: Homo sapiens; NCM460 (normal intestinal epithelial cell line)
From the text: as §2

[30] = test system: human umbilical vein endothelial cell line HUVEC; test: Cell growth inhibitory (cytotoxic) activity assay; assay type: cell-based
From the text: as §2

[31] = test system: human liver cell line LX-2; test: Cell growth inhibitory (cytotoxic) activity assay; assay type: cell-based; details: LX-2 (human liver cell line)
From the text: as §2

[32] = test system: breast cancer cell line MCF7; test: Cell growth inhibitory (cytotoxic) activity assay; assay type: cell-based, human; details: Homo sapiens
From the text: SPSS software version 22.0 was used to test the IC50 values.

[33] = test system: Staphylococcus simulans AKA1; test: Antibacterial MIC, CLSI microdilution; assay type: cell-based; details: Staphylococcus simulans AKA1; 37 °C, 16–18 h; read-out: MIC
[34] = test system: methicillin-resistant Staphylococcus aureus; design: method as in PMID 27097765; details: ref [24]; cited from earlier work
[35] = test system: Bacillus subtilis; design: method as in PMID 18396903; details: ref [35]; cited from earlier work
[36] = test system: Staphylococcus lentus; design: method as in PMID 18396903; details: ref [35]; cited from earlier work

C[C@]1(O)CC(=O)c2c(cc(O)c3c2C(=O)c2cccc(O)c2C3=O)C1 [Rabelomycin (3), rabelomycin]
MIC [1]: 8 µg/mL (≈ 23.6 µM) | MIC [2]: 16 µg/mL (≈ 47.3 µM) | MIC [3]: 4 µg/mL (≈ 11.8 µM) | MIC [4]: 32 µg/mL (≈ 94.6 µM) | MIC [5]: 8 µg/mL (≈ 23.6 µM) | MIC [6]: 4 µg/mL (≈ 11.8 µM) | MIC [7]: 8 µg/mL (≈ 23.6 µM) | MIC ([8]; Micrococcus luteus ML01): 2 µg/mL (≈ 5.91 µM) | MIC ([8]; Micrococcus luteus, ML01, Micrococcus luteus ML01, read-out: MIC): 1 to 2 µg/mL (≈ 2.96 to 5.91 µM) | MIC [9]: 8 µg/mL (≈ 23.6 µM) | MIC [10]: 8 µg/mL (≈ 23.6 µM) | MIC [11]: 8 µg/mL (≈ 23.6 µM) | MIC [12]: 8 µg/mL (≈ 23.6 µM) | MIC [13]: 32 µg/mL (≈ 94.6 µM) | MIC [14]: 16 µg/mL (≈ 47.3 µM) | MIC [15]: 8 µg/mL (≈ 23.6 µM) | IC50 ([16]; Homo sapiens, SW480 (colorectal cancer)): 1.57 µM | selective index (SI) ([16]; SW480 versus normal intestinal epithelial cell line NCM460): 4.49 | IC50 [17]: 7.85 µM | IC50 [18]: 4.23 µM | IC50 [19]: 2.18 µM | IC50 [20]: 16.1 µM | IC50 [21]: 4.72 µM | IC50 [22]: 8.67 µM | IC50 [23]: 5.97 µM | IC50 [24]: 8.64 µM | IC50 [25]: 2.18 to 8.67 µM | MIC [26]: 8 µg/mL (≈ 23.6 µM) | IC50 [27]: 1.57 to 16.1 µM | IC50 [28]: 11.3 µM | IC50 [29]: 7.05 µM | IC50 [30]: 10.9 µM | IC50 [31]: 13.4 µM | IC50 [32]: 4.48 µM | MIC [33]: 16 µg/mL (≈ 47.3 µM)

(-)-Streptophenazine B
MIC [34]: 4.2 µg/mL

streptophenazine C
MIC [35]: 15.6 µg/mL | MIC [36]: 46.9 µg/mL
